Source: patent US20070196848A1, “DETECTION OF PHOSPHORYLATED eIF2-alpha AS A DIAGNOSTIC TEST FOR EFFICACY AND SENSITIVITY OF TRANSLATION INITIATION INHIBITORS IN THE TREATMENT OF CANCER AND OTHER PROLIFERATIVE DISEASES” (priority 2004, published 2007)

What was measured:
BRCA1 = BRCA1 expression in MCF-7 breast cancer cells; assay type: cell-based, human; settings: MCF-7 cells, dose-dependent
Text: (§1) FIGS. 4A-4C depict dose-dependent up-regulation of BRCA1 in MCF-7 breast cancer cells by EPA (A) and CLT (B). Upper bands, BRCA1; lower bands, actin.
(§2) MCF-7 breast cancer cells, known to have very low levels of BRCA1 protein, were exposed to CLT and EPA. […] To confirm that up-regulation of BRCA1 was at the level of translation, the 5′ UTRs of either BRCA1 mRNAa or mRNAb were placed in front of the firefly luciferase reporter gene using in both cases renilla luciferase as an internal control. These constructs were transfected into MCF-7 breast cancer cells. […] Without intending to be bound by theory, these experiments indicate that the inhibitors of translation initiation that induce phosphorylation of eIF2α restrict the availability of the ternary complex to translationally up-regulate the tumor suppressor gene BRCA1, a critical player in many types of sporadic breast and ovarian cancers.

5′ UTR of BRCA1 mRNA = test: firefly luciferase reporter with 5′ UTR of BRCA1 mRNAa or mRNAb in MCF-7 cells; assay type: cell-based, human; settings: renilla luciferase internal control
Text: as §1, §2

A549 = test: sulfarodamine B cell growth assay (SRB); assay type: cell-based; settings: Homo sapiens; A549, Lung
Text: (§3) The effect of EPA on the proliferation of a panel of cancer cell lines representative of most common human cancers was studied using the sulfarodamine B cell growth assay (SRB). EPA inhibited the proliferation of all cancer cell lines tested, including androgen dependent and androgen independent prostate cancer cell lines (LNCaP, PC-3 and DU-145) in a dose dependent manner (Table 1: effect of EPA on human cancer cello growth).

ACHN = test: sulfarodamine B cell growth assay (SRB); assay type: cell-based; settings: Homo sapiens, Kidney
Text: as §3

Caski-1 = test: sulfarodamine B cell growth assay (SRB); assay type: cell-based; settings: Homo sapiens; Caski-1, Cervix
Text: as §3

DU-145 = test: sulfarodamine B cell growth assay (SRB); assay type: cell-based; settings: Homo sapiens; DU-145, Prostate
Text: as §3

HCT-15 = test: sulfarodamine B cell growth assay (SRB); assay type: cell-based; settings: Homo sapiens; HCT-15, Colon
Text: as §3

HT-29 = test: sulfarodamine B cell growth assay (SRB); assay type: cell-based; settings: Homo sapiens; HT-29, Colon
Text: as §3

HeLa = test: sulfarodamine B cell growth assay (SRB); assay type: cell-based; settings: Homo sapiens, Cervix
Text: as §3

Hep-G2 = test: sulfarodamine B cell growth assay (SRB); assay type: cell-based; settings: Homo sapiens, HepG2; Hep-G2, Liver
Text: as §3

LNCaP = test: sulfarodamine B cell growth assay (SRB); assay type: cell-based; settings: Homo sapiens, Prostate
Text: as §3

MCF-7 = test: sulfarodamine B cell growth assay (SRB); assay type: cell-based; settings: Homo sapiens, MCF7; MCF-7, Breast
Text: as §3

MDAMB231 = test: sulfarodamine B cell growth assay (SRB); assay type: cell-based; settings: Homo sapiens, MDA-MB-231; MDAMB231, Breast
Text: as §3

MMRU = test: sulfarodamine B cell growth assay (SRB); assay type: cell-based; settings: Homo sapiens, Skin
Text: as §3

PC-3 = test: sulfarodamine B cell growth assay (SRB); assay type: cell-based; settings: Homo sapiens; PC-3, Prostate
Text: as §3

SK-Mel-28 = test: sulfarodamine B cell growth assay (SRB); assay type: cell-based; settings: Homo sapiens; SK-Mel-28, Skin
Text: as §3

SK-OV3 = test: sulfarodamine B cell growth assay (SRB); assay type: cell-based; settings: Homo sapiens, SK-OV-3; SK-OV3, Ovary
Text: as §3

U-118 MG = test: sulfarodamine B cell growth assay (SRB); assay type: cell-based; settings: Homo sapiens, Glioblastoma
Text: as §3

HTB-174 = test: sulfarodamine B cell growth assay (SRB); assay type: cell-based; settings: Homo sapiens; HTB-174, Lung
Text: The effect of EPA on the proliferation of a panel of cancer cell lines representative of most common human cancers was studied using the sulfarodamine B cell growth assay (SRB).

[1] = tested on: DU-145 cells transfected with eIF2α51A; test: cell cycle distribution of GFP expressing cells by FACS; assay type: cell-based, human; settings: 51A, GFP-expressing DU-145 cells
Protocol: (§4) FIG. 10 depicts cell cycle inhibition by EPA that is dependent on eIF2α phosphorylation. DU-145 human prostate cancer cell lines were transiently transfected with eIF2α-51A-GFP or eIF2α-WT-GFP plasmids, treated with EPA or vehicle, stained with propidium iodide and cell cycle distribution of GFP transfected cells was determined.
(§5) eIF2α51A is a […] non-phosphorylatable mutant of eIF2α in which serine 51 has been replaced by alanine (FIG. 9). To confirm that eIF2α phosphorylation is also critical for EPA-mediated inhibition of cell proliferation in prostate cancer cells, DU-145 cells were transiently transfected with a construct that co-expresses the fluorescent marker GFP with either eIF2αWT (i.e., eIF2α wild-type) or eIF2α51A. These cells were treated with either EPA or vehicle DMSO, and the cell cycle distribution of GFP expressing cells was determined by FACS analysis.

[2] = tested on: DU-145 cells transfected with eIF2αWT; test: as above; assay type: cell-based, human; settings: WT, GFP-expressing DU-145 cells
Protocol: as §4, §5

eIF2α phosphorylation = test: immunoblot with anti-S51-P-eIF2α-specific antibody in DU-145 cells; assay type: cell-based, human; settings: two hours
Protocol: To investigate whether depletion of Ca^++ stores by EPA causes activation of eIF2α kinases and phosphorylation of eIF2α in prostate cancer cells, DU-145 cells were incubated with or without increasing concentrations of EPA for two hours.

[3] = tested on: PC-3 human prostate tumors; test: orthotopic xenograft model of human prostate cancer, survival; assay type: in vivo, mouse; settings: PC-3 orthotopic, gavage 2.5 grams/kilogram/day
Text: FIGS. 14A-14F depict the effect of EPA on xenograft cancer models. (A) EPA increased the mean survival time in an orthotopic model of PC-3 human prostate tumors (left, corn oil; right, EPA). (B) EPA reduced tumor growth in an orthotopic syngenic model of KLN mouse squamous cell carcinoma (5 weeks) (left, corn oil; right, EPA). (C) EPA induced phosphorylation of eIF2α in the KLN tumors (left, corn oil; middle, EPA1;
Human PC-3 prostate cancer cells stably transfected with the GFP fluorescent marker were implanted into mouse prostate glands and tumors were allowed to establish. Mice with tumors detectable by whole body fluorescent scanning were treated with EPA or corn oil, orally administered by gavage (2.5 grams/kilogram/day).

p53^−/− mice = tested on: p53^−/− mice
Text: p53 is the most commonly mutated gene in human cancers. The anti-cancer activity of EPA was investigated in p53^−/− mice, which develop a wide variety of spontaneous tumors with 100% penetrance and die from cancer within 50 weeks of age. Age and sex matched animals were randomly distributed to treatment (2.5 grams/kilogram EPA) or control (2.5 grams/kilogram corn oil) administered daily by gavage.

Clc1ccccc1C(c1ccccc1)(c1ccccc1)n1ccnc1 [CLT, clotrimazole]
up-regulation of BRCA1 (BRCA1): significant up-regulation of BRCA1
translation of reporter fused to 5′ UTR of BRCA1 mRNAb (5′ UTR of BRCA1 mRNA): significantly up-regulated translation

CC/C=C\C/C=C\C/C=C\C/C=C\C/C=C\CCCC(=O)O [EPA, eicosapentaenoic acid]
IC50 (A549): 54 µM
IC50 (ACHN): 62 µM
IC50 (Caski-1): 76 µM
IC50 (DU-145): 36 µM
IC50 (HCT-15): 47 µM
IC50 (HT-29): 72 µM
IC50 (HeLa): 10 µM
IC50 (Hep-G2): 24 µM
IC50 (LNCaP): 18 µM
IC50 (MCF-7): 43 µM
IC50 (MDAMB231): 37 µM
IC50 (MMRU): 36 µM
IC50 (PC-3): 20 µM
IC50 (SK-Mel-28): 46 µM
IC50 (SK-OV3): 96 µM
IC50 (U-118 MG): 36 µM
IC50 (HTB-174): 79 µM
% G1 [1]: 48%
% G2/M [1]: 21%
% S [1]: 31%
% G1 [2]: 67%
% G2/M [2]: 14%
% S [2]: 19%
increase in eIF2α phosphorylation (eIF2α phosphorylation): approximately 10 fold
longer mean survival time than corn oil [3]: 50%
mean survival time [3]: 38 ± 5 days
sign of toxicity (p53^−/− mice; mouse, in vivo): Neither control nor EPA treated animals showed any sign of toxicity
mean survival time (Kaplan-Meier) (p53^−/− mice; oral 2.5 grams/kilogram/day from four weeks of age): 385 ± 12 days
